How the values were obtained:
AMPA receptor = experiment: [3H] CNQX binding test (AMPA-receptor binding), brain membranes; settings: 5 nM [3H]-CNQX, 4° C., 40 min
Experimental: CNQX binding test (Honoré et al. Biochem. Pharmacol. 1989, 38: 3207-3212). This test is performed as follows:
Brain membranes: The animals are decapitated, the brain removed and homogenized in 10 volumes of ice-cold 10% sucrose with a glass/Teflon homogenizer at positions 5 for 30 sec. The membranes are centrifuged at 1000×g for 10 min, and the supernatant centrifuged at 20,000×g for 15 min. The resulting pellet is resuspended in 10 volumes of cold water with a tissue homogenizer (Brinkman Polytron) at position 5 for 15 sec and the suspension centrifuged at 8000×g for 10 min. The supernatant including the buffy layer is centrifuged at 40,000×g for 20 min, the pellet resuspended in 5 volumes of water and the suspension frozen (20-30 min in dry ice/methanol) and thawed (water-bath at 37° C.) twice. The suspension is centrifuged at 40,000×g for 20 min, the pellet resuspended in 50 mM HEPES/KOH, pH 7.5, and centrifuged at 40,000×g for 10 min. […]
Radioligand binding assay: It is performed using 96-well microtiterplates in a volume of 0.3 ml of 50 mM HEPES/KOH, pH 7.2, 100 μg membrane protein, 5 nM [^3H]-CNQX (NEN) and the compound to be tested. […] Two hundred μl of the scintillation fluid Microscint 20 (Packard) are added and the radioactivity is counted in a Packard Topcount scintillation counter at an efficiency of 40-45%. […]

[1] = target: T1, rat GluR3-(flop) AMPA receptor (Rattus norvegicus, UniProt P19492); experiment: Functional test for AMPA-receptor activity, two electrode voltage clamp in Xenopus laevis oocytes; assay type: cell-based; settings: Xenopus oocytes expressing rGluR3-(flop); read-out: IC50-value, antagonist at the rGluR3 AMPA receptor
T1 construct: expressed in transfected cells; host or cells: Xenopus laevis oocytes (cRNA injection)
Experimental: For the determination of functional agonism or antagonism at the AMPA-receptor, experiments can be performed on Xenopus oocytes as previously described in detail (Urwyler et al., Mol. Pharmacol. 2001, 60, 963-971). Briefly, two electrode voltage clamp recordings are performed from Xenopus laevis oocytes expressing GluR3 AMPA receptors. Plasmids for the rat GluR3-(flop) (Hollmann et al., Science 1991, 252, 851-853) are linearized and transcribed into capped cRNA using an in vitro RNA synthesis kit (Ambion, Tex.) with T7 Polymerase. Stock solutions are kept in 70% ethanol. Before use, cRNA is precipitated and resuspended in DEPC-treated water. Oocytes are injected with RNA coding the rat GluR3-(flop) AMPA receptor. For recordings, oocytes are placed in a perfusion chamber with continuous gravity flow of frog Ringer's solution. For recordings from oocytes expressing rGluR3-(flop) receptors frog, Ringer's solution containing Mg^2+ (81 mM NaCl; 2.5 mM KCl; 1 mM CaCl2; 1 mM MgCl2, 2.5 mM NaHCO3, 5 mM HEPES, pH 7.4) is used. Test compounds are washed in with gravity.

[2] = tested on: patients with diabetic neuropathy; experiment: Clinical study, chronic pain in patients with diabetic neuropathy; assay type: in vivo, human; settings: 2400 mg/day, Maintenance and Follow-up Periods, statistically significant
Experimental: Patients are randomized to receive 2400 mg/day of the compound or placebo in a 1:1 ratio.
The study consists of a Pre-randomization Phase (1 week) and a Double-blind Phase (5 weeks). The double-blind Phase consists of three periods: a one week Titration Period, a three-week Maintenance Period and a one-week Follow-up Period.
During the 1-week Pre-randomization Phase, the eligibility of the patients is evaluated. Patients meeting all inclusion/exclusion criteria are randomized to either the compound or placebo in the Double-blind Phase. During the 1-week Titration Period, study medication is up-titrated from 800 mg/day (given b.i.d.) to 2400 mg/day (given b.i.d.). Patients who complete the 1-week Titration Period then enter the 3-week Maintenance Period. Patients who complete the 3-week Maintenance period or prematurely discontinue double-blind treatment then enter the 1-week Follow-up Period. Study medication is completely withdrawn on entry into the Follow-up Period. During the Double-blind Phase, serial efficacy and safety assessments are obtained. […]
The SF-MPQ total pain score at the end of the Maintenance Period is analyzed using an analysis of covariance model adjusting for the effect of treatment on post-treatment scores by using the baseline SF-MPQ total pain score as a covariate. Average weekly pain severity is analyzed using an analysis of covariance model with repeated measures using the treatment week and the mean pain severity rating during the Pre-randomization Phase as covariates. Usage of rescue medication during the Double-blind Phase is analyzed using the Cochran-Mantel-Haenszel test controlling for center. The mean pain severity rating during the Follow-up Period (rebound pain) is analyzed using an analysis of covariance model adjusting for the effect of treatment on the mean pain severity rating of the Follow-up Period with the mean pain severity rating during the Prerandomization Phase as a covariate.

Wistar Kyoto rats [3] = experiment: Test 2: NMDA-channel blocker induced head swaying and circling; assay type: in vivo, rat; settings: 10 mg/kg s.c., alone
Experimental: Adult male Wistar Kyoto rats (340-380 g; Iffa Credo, Lyon, France) are used. The animals are randomized to the following treatment groups (n=10 per group): the compound (dosed 0, 3 or 10 mg/kg) followed by phencyclidine (PCP; an NMDA channel blocker, dosed 0 or 10 mg/kg). Compound (at t=−15 min) and PCP (at t=0 min) are administered s.c. in a volume of 1 ml/kg. Video-recordings of the animals behaviour over the period 0-30 min following PCP are scored by an observer who is unaware about the animals pretreatment. Head-swaying (rocking the head repeatedly by at least 2 cm left and right) and circling (turning around by using the forepaws, whereas the hindpaws remain more or less on the original position) are scored as present (1) or absent (0), every five minutes for the duruation of 1 minute. The scores for individual animals is summed and group scores used for statistical analysis (t-test with Bonferroni correction).

Wistar Kyoto rats [4] = experiment: Test 1: NMDA-antagonist induced locomotion; assay type: in vivo, rat; settings: 10 mg/kg s.c.
Experimental: Male Wistar Kyoto rats (Iffa Crédo, Lyon, France) weighing between 250 and 310 g are used. In principle 4 treatment groups are formed: 1) the compound (doses 1, 3 or 10 mg/kg) followed by the competitive NMDA receptor antagonist (S)-2-amino-3-(2′-chloro-5-phosphonomethyl-biphenyl-3-yl)-propionic acid, hereinafter SDZ 220-581 (10 mg/kg), 2) solvent-pretreatment followed by SDZ 220-581 (10 mg/kg), 3) solvent followed by solvent, 4) the compound (1, 3, 10 mg/kg) followed by solvent. Rats are randomly allocated to these pretreatment groups (n=10/dose group). Drugs are administered subcutaneous (s.c.), 15 min prior to SDZ 220-581. Immediately after the animals received SDZ 220-581, they are placed into the activity monitor for a period of 60 min. Locomotor activity is analysed over the initial 30 minutes.
Locomotion is recorded with a videotracking system (VideoMot2, TSE Technical and Scientific Equipment GmbH, Bad Hombourg, Germany), using a closed circuit digital videocamera (WV-BP.330/GE, Panasonic, Osaka, Japan). The video-signal from the camera is digitized and used for data analysis. […] The camera is placed such, that four animals (one per arena) can be recorded simultaneously.

T1 sequence (P19492 23-888): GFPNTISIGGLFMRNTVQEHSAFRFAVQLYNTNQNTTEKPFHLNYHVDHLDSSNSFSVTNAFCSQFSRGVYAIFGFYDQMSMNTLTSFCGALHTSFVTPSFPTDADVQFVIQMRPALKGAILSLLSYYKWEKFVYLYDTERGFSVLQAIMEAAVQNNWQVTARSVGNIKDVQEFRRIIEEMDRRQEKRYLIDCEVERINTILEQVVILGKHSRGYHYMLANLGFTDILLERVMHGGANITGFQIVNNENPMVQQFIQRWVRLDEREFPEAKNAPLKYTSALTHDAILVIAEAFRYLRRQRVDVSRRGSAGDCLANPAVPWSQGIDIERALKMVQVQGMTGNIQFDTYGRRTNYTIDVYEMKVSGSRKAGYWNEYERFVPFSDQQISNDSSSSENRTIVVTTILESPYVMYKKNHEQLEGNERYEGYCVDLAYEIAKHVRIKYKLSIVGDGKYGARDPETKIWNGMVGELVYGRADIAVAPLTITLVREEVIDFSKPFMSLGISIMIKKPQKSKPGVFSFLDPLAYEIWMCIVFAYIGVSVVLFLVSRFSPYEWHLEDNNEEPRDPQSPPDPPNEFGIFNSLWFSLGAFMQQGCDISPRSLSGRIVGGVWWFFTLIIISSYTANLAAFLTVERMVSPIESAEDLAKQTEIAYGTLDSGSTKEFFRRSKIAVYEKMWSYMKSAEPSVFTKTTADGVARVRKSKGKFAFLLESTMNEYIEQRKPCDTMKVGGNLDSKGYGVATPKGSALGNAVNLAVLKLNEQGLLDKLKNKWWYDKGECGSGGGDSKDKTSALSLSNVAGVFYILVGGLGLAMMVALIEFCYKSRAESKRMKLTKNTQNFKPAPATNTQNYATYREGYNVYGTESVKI

Work on `CN(C)c1cc2c(=O)n(NS(C)(=O)=O)c(=O)[nH]c2cc1[N+](=O)[O-]` [Example 4, N-(6-Dimethylamino-7-nitro-2,4-dioxo-1,4-dihydro-2H-quinazolin-3-yl)-methanesulfonamide] yielded an IC50 (AMPA receptor) of 0.29 µM and an IC50 [1] of 2.3 µM.
`CN(CCO)c1cc2c(=O)n(NS(C)(=O)=O)c(=O)[nH]c2cc1C(F)(F)F` [Example 83, N-{6-[(2-Hydroxy-ethyl)-methyl-amino]-2,4-dioxo-7-trifluoromethyl-1,4-dihydro-2H-quinazolin-3-yl}-methanesulfonamide] was tested, and the “pain severity ratings relative to placebo” value [2] was “decrease pain severity ratings relative to placebo”.
With `c1ccc(C2(N3CCCCC3)CCCCC2)cc1` [PCP, phencyclidine] the head-swaying and circling (Wistar Kyoto rats [3]) was “induces weak head-swaying and circling”.
For `N[C@@H](Cc1cc(CP(=O)(O)O)cc(-c2ccccc2Cl)c1)C(=O)O` [SDZ 220-581, (S)-2-amino-3-(2′-chloro-5-phosphonomethyl-biphenyl-3-yl)-propionic acid], the “distance walked during 30 min” value (Wistar Kyoto rats [4]) was “approximately 30 m”.

— patent publication US8299085B2, “Quinazoline derivatives” (Novartis AG, priority 2004, dated 2012)
